From patent US12472171B2, “Methods for treating hypercholesterolemia” (BIOGEN MA INC., priority 2020, dated 2025)

Legend:
rat OPCs = experiment: Sterol levels (Metabolon HD4) in rat OPC cultures treated with Compound 1; assay type: cell-based; settings: rat OPC culture
Description: Enriched populations of oligodendrocytes from female Sprague Dawley postnatal day 2 (P2) rats were grown in culture. Briefly, the forebrain was dissected and placed in Hank's buffered salt solution (HBSS) (Life technologies). The tissue was cut into 1 mm fragments and incubated at 37° C. for 15 min in 0.01% trypsin and 10 μg/ml DNase. Dissociated cells were plated on poly-D-lysine (PDL)-coated T75 tissue culture flasks and grown at 37° C. for 10 days in Dulbecco's Modified Eagle Medium (DMEM) with 20% fetal calf serum (Life technologies). Oligodendrocyte precursors (A2B5+) were collected by shaking the flask overnight at 200 rpm at 37° C., resulting in a 95% pure population. Cultures were maintained in a defined growth medium (high glucose DMEM, 0.1% BSA, 50 ug/ml Apo-transferrin, 5 ug/ml insulin, 30 nM sodium selenite, 10 nM biotin and hydrocortisone) with 10 ng/ml fibroblast growth factor/platelet-derived growth factor (FGF/PDGF) (Peprotech) for 2-3 days. For assessing the ability of Compound 1 to promote the differentiation of rat A2B5+ progenitor cells into mature myelin basic protein positive (MBP+) myelinating oligodendrocytes, A2B5+ cells were plated into 10-cm PDL coated culture plates in FGF/PDGF free growth medium supplemented with 10 ng/ml CNTF and 15 nM T3 and were immediately treated for with Compound 1. The cell pellets were collected at 24 hours and 72 hours in culture and stored at −80° C. The cell pellets were subsequently shipped to Metabolon (Morrisville, NC, USA) and maintained at −80° C. during shipping and storage until processed. The cell pellet samples were extracted with methanol under vigorous shaking for 2 min (Glen Mills GenoGrinder 2000) to precipitate protein and dissociate small molecules bound to protein or trapped in the precipitated protein matrix, followed by centrifugation to recover chemically diverse metabolites. The resulting extract were next aliquot and analyzed on Metabolon's HD4 platform. Several types of quality control samples, including recovery standards added prior to extraction, technical replicates from a pool combined from each experimental sample, process and solvent blanks, and spiked a cocktail of QC standards, were applied during sample preparation and analysis for quality assessment and filtering failed samples.

healthy volunteers [1] = experiment: Population PK/PD model (Monolix) of circulating cholesterol versus Compound 1 plasma concentration, from three phase I studies; set-up: species or system human
Description: FIG. 2 is a bar graph showing predicted steady-state concentrations of circulating cholesterol levels during treatment with Compound 1 for subject administered placebo, 1 mg, 3 mg, 10 mg, 30 mg or 60 mg per day of Compound 1 at pharmacodynamic steady-state. The predicted concentrations are from simulations based on data from three phase I trials of Compound 1.
Based on these observations, a population PK/PD model was developed using Monolix to describe circulating cholesterol concentration as a function of plasma concentration of Compound 1 and exposure. The model was developed from cholesterol data from the study described above (Study 1) as well as two additional clinical studies (Study 2 and Study 3) in healthy volunteers. In Study 2, thirty healthy volunteers received a single oral dose of Compound 1 with 6 individual participants per cohort receiving 3 mg (Cohort 1), 10 mg (Cohort 2), 30 mg (Cohort 3), 60 mg (Cohort 4), 100 mg (Cohort 5). There were also 9 participants who received placebo in the study. In Study 3, 8 healthy adult volunteers received a single dose of 30 mg of Compound 1.

healthy volunteers [2] = experiment: 28-day once-daily dosing study in healthy volunteers (Study 1), circulating total cholesterol and oxysterols; assay type: in vivo, human
Description: Forty-two healthy volunteers received Compound 1 QD for 28 days (or before early withdrawal), with 6 individual participants per cohort receiving 1 mg (Cohort 1), 3 mg (Cohort 2), 10 mg (Cohort 3), 30 mg (Cohort 4), 60 mg loading dose with 10 mg maintenance dosing (Cohort 5) Compound 1, 60 mg (Cohort 6), or 90 mg loading dose on Day 1 and Day 2 with 30 mg maintenance dosing (Cohort 7). There were also 14 participants who received placebo in the study; 1 participant in Cohort 4 was misdosed on Day 19 and appeared to have received at least one 30 mg dose of Compound 1. The following protocol deviations were reported for participants in Cohorts 1 through 5: they received predose water ad lib (not restricted for 1 hour before and 1 hour after dose) and a meal administered 30 minutes postdose (not 4 hours postdose). A total of 49 participants completed treatment, including 37 participants who received active treatment.
Participants received the first dose of study treatment (Compound 1 or placebo) on Day 1 and continued to receive once-daily study treatment through Day 28. Participants remained in the clinic throughout the dosing period. Participants were discharged on Day 29 after completing all assessments.
Blood was periodically withdrawn from each volunteer and immediately stored at −80° C. For measuring metabolite concentrations in human serum, the samples were centrifuged and the resulting supernatant was used for further analysis.
Free oxysterols were extracted from the samples with methanol using the Biocrates Kit filter plate. The plate was loaded with an internal standard mixture beforehand. The metabolite concentrations were determined by UHPLC-MS/MS with multiple reaction monitoring (MRM) in a positive mode using a SCIEX API 5500 QTRAP® (AB SCIEX, Darmstadt, German) instrument with electrospray ionization (ESI). Data were quantitated using appropriate mass spectrometry software and imported in Biocrates Met/DQ™ software for further analysis.

For `CC[C@H]1CC[C@@H](Oc2ccc3cc(CN4CCC(C(=O)O)CC4)ccc3c2)CC1` [Compound 1, 1-((6-(((1s,4s)-4-ethylcyclohexyl)oxy)naphthalen-2-yl)methyl)piperidine-4-carboxylic acid], the “7-DHC versus vehicle control” value (rat OPCs; 24 hours) was 8.3 folds, the “cholesterol versus vehicle control” value (rat OPCs; 24 hours) was 0.64 folds and the “desmosterol versus vehicle control” value (rat OPCs; 24 hours) was 0.44 folds. For the same compound, the “7-DHC versus vehicle control” value (rat OPCs; 72 hours) was 12.86 folds, the “cholesterol versus vehicle control” value (rat OPCs; 72 hours) was “insignificant change” and the “desmosterol versus vehicle control” value (rat OPCs; 72 hours) was 0.4 folds. The “model-predicted decrease of circulating cholesterol” value (healthy volunteers [1]; 60 mg QD, steady state) was “approximately 35%”, the “predicted time for circulating cholesterol to return to baseline after discontinuation” value (healthy volunteers [1]; after discontinuation of treatment) was at most 30 days and the “steady-state concentration of Compound 1” value (healthy volunteers [1]; daily dose of 60 mg) was “about 3 μg/mL”. The “time of increase to steady-state concentrations of Compound 1 in plasma” value (healthy volunteers [1]; daily dosing, cholesterol reduction predicted over the same time frame) was “approximately 15 days”, the “EC50 for reduction in circulating cholesterol concentration” value (healthy volunteers [1]; plasma concentration of Compound 1, population PK/PD model) was “about 3 μg/mL” and the “circulating cholesterol concentration in the model by daily dose” value (healthy volunteers [1]; population PK/PD model) was “reduced at all daily doses higher than 10 mg”. For the same compound, the “accumulation of 7-dehydrocholesterol (7-DHC)” value (healthy volunteers [2]; healthy human volunteers) was “causes accumulation of 7-dehydrocholesterol (7-DHC)”, the “average decrease in total cholesterol” value (healthy volunteers [2]; healthy volunteers, 60 mg dose, Study 1) was “approximately 20%” and the “reduction in total circulating cholesterol” value (healthy volunteers [2]; healthy volunteers, QD for 28 days, FIG. 1) was “gradual, time- and dose-dependent reduction in total circulating cholesterol”.
